# Results reported in PubChem BioAssay (NCI).
#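 In this assay, cells in 96-well plates receive the compound at five concentrations for 48 hours. Endpoints are linearly interpolated between the surrounding concentrations. The concentration for 50% growth inhibition is given as GI50. TGI: total growth inhibition.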
# Assays:
# Test in all cases: NCI anticancer screen, dose series, 48 h
# MALME-3M melanoma = test system: MALME-3M melanoma
# DU-145 prostate = test system: DU-145 prostate
# MDA-MB-468 breast = test system: MDA-MB-468 breast
# IGROV1 ovarian = test system: IGROV1 ovarian
# T-47D breast = test system: T-47D breast
# OVCAR-8 ovarian = test system: OVCAR-8 ovarian
# MCF7 breast = test system: MCF7 breast
# HCT-116 colon = test system: HCT-116 colon
# COLO 205 colon = test system: COLO 205 colon
# HL-60(TB) leukemia = test system: HL-60(TB) leukemia
# SF-539 CNS = test system: SF-539 CNS
# U251 CNS = test system: U251 CNS
# MOLT-4 leukemia = test system: MOLT-4 leukemia
# SK-MEL-2 melanoma = test system: SK-MEL-2 melanoma
# OVCAR-3 ovarian = test system: OVCAR-3 ovarian
# ACHN renal = test system: ACHN renal
# SNB-19 CNS = test system: SNB-19 CNS
# SN12C renal = test system: SN12C renal
# RPMI-8226 leukemia = test system: RPMI-8226 leukemia
# NCI-H226 lung = test system: NCI-H226 lung
# SK-MEL-28 melanoma = test system: SK-MEL-28 melanoma
# UO-31 renal = test system: UO-31 renal
# CAKI-1 renal = test system: CAKI-1 renal
# LOX IMVI melanoma = test system: LOX IMVI melanoma
# SR leukemia = test system: SR leukemia
# OVCAR-5 ovarian = test system: OVCAR-5 ovarian
# SNB-75 CNS = test system: SNB-75 CNS
# HCT-15 colon = test system: HCT-15 colon
compound,measurement,setting,value
O/N=C(\CSc1nnc(-c2c[nH]c3ccccc23)n1-c1ccccc1)c1ccc(Cl)cc1,GI50,MALME-3M melanoma,4.99 µM
same,TGI,MALME-3M melanoma,27.5 µM
same,GI50,DU-145 prostate,2.59 µM
same,TGI,DU-145 prostate,6.32 µM
same,GI50,MDA-MB-468 breast,1.72 µM
same,TGI,MDA-MB-468 breast,3.47 µM
same,GI50,IGROV1 ovarian,5.35 µM
same,TGI,IGROV1 ovarian,19.8 µM
same,GI50,T-47D breast,3.6 µM
same,TGI,T-47D breast,31.4 µM
same,GI50,OVCAR-8 ovarian,3.72 µM
same,TGI,OVCAR-8 ovarian,15.8 µM
same,GI50,MCF7 breast,3.63 µM
same,TGI,MCF7 breast,21.6 µM
same,GI50,HCT-116 colon,2.92 µM
same,TGI,HCT-116 colon,13.7 µM
same,GI50,COLO 205 colon,4.47 µM
same,TGI,COLO 205 colon,25.9 µM
same,GI50,HL-60(TB) leukemia,2.17 µM
same,TGI,HL-60(TB) leukemia,6.34 µM
same,GI50,SF-539 CNS,10.2 µM
same,TGI,SF-539 CNS,29.5 µM
same,GI50,U251 CNS,4.73 µM
same,TGI,U251 CNS,81.2 µM
same,GI50,MOLT-4 leukemia,2.16 µM
same,TGI,MOLT-4 leukemia,5.69 µM
same,GI50,SK-MEL-2 melanoma,3.64 µM
same,TGI,SK-MEL-2 melanoma,17.1 µM
same,GI50,OVCAR-3 ovarian,4.58 µM
same,TGI,OVCAR-3 ovarian,32.4 µM
same,GI50,ACHN renal,3.69 µM
same,TGI,ACHN renal,14.5 µM
same,GI50,SNB-19 CNS,6.89 µM
same,TGI,SNB-19 CNS,45.2 µM
same,GI50,SN12C renal,3.79 µM
same,TGI,SN12C renal,16.3 µM
same,GI50,RPMI-8226 leukemia,2.38 µM
same,TGI,RPMI-8226 leukemia,7.29 µM
same,GI50,NCI-H226 lung,3.98 µM
same,TGI,NCI-H226 lung,17.6 µM
same,GI50,SK-MEL-28 melanoma,4.41 µM
same,TGI,SK-MEL-28 melanoma,> 100 µM
same,GI50,UO-31 renal,2.88 µM
same,TGI,UO-31 renal,15.7 µM
same,GI50,CAKI-1 renal,2.93 µM
same,TGI,CAKI-1 renal,12.4 µM
same,GI50,LOX IMVI melanoma,1.72 µM
same,TGI,LOX IMVI melanoma,3.12 µM
same,GI50,SR leukemia,4.74 µM
same,TGI,SR leukemia,> 100 µM
same,GI50,OVCAR-5 ovarian,3.37 µM
same,TGI,OVCAR-5 ovarian,11.4 µM
same,GI50,SNB-75 CNS,1.68 µM
same,TGI,SNB-75 CNS,5.8 µM
same,GI50,HCT-15 colon,3.2 µM
